Results published in ChEMBL document CHEMBL3044945, “Synthesis of 1,3,5-trisubstituted pyrazoline nucleus containing compounds and screening for antimicrobial activity” (2012).
Values after ≈ are worked out from the molar mass of the structure shown.

Key:
Assay type in all cases: functional
Pseudomonas aeruginosa [1] = assay: Antibacterial activity against Pseudomonas aeruginosa MTCC 424 at 500 ug/ml after 48 hr by cup-plate method; details: MTCC 424, 48 h, read-out: DIZ
Pseudomonas aeruginosa [2] = assay: Antibacterial activity against Pseudomonas aeruginosa MTCC 424 at 100 ug/ml after 48 hr by cup-plate method; details: MTCC 424, 48 h, read-out: DIZ
Pseudomonas aeruginosa [3] = assay: Antibacterial activity against Pseudomonas aeruginosa MTCC 424 after 24 to 48 hr by tube dilution method
Escherichia coli [4] = assay: Antibacterial activity against Escherichia coli MTCC 1573 at 750 ug/ml after 48 hr by cup-plate method; details: MTCC 1573, 48 h, read-out: DIZ
Micrococcus luteus = assay: Antibacterial activity against Micrococcus luteus MTCC 1538 at 1250 ug/ml after 48 hr by cup-plate method; details: MTCC 1538, 48 h, read-out: DIZ
Staphylococcus aureus [5] = assay: Antibacterial activity against Staphylococcus aureus MTCC 1430 after 24 to 48 hr by tube dilution method
Escherichia coli [6] = assay: Antibacterial activity against Escherichia coli MTCC 1573 at 250 ug/ml after 48 hr by cup-plate method; details: MTCC 1573, 48 h, read-out: DIZ
Aspergillus niger [7] = assay: Antifungal activity against Aspergillus niger MTCC 2546 after 24 to 48 hr by tube dilution method
Pseudomonas aeruginosa [8] = assay: Antibacterial activity against Pseudomonas aeruginosa MTCC 424 at 250 ug/ml after 48 hr by cup-plate method; details: MTCC 424, 48 h, read-out: DIZ
Pseudomonas fluorescens [9] = assay: Antibacterial activity against Pseudomonas fluorescens MTCC 2421 after 24 to 48 hr by tube dilution method
Bacillus subtilis [10] = assay: Antibacterial activity against Bacillus subtilis MTCC 441 at 500 ug/ml after 48 hr by cup-plate method; details: MTCC 441, 48 h, read-out: DIZ
Staphylococcus aureus [11] = assay: Antibacterial activity against Staphylococcus aureus MTCC 1430 at 500 ug/ml after 48 hr by cup-plate method; details: MTCC 1430, 48 h, read-out: DIZ
Bacillus subtilis [12] = assay: Antibacterial activity against Bacillus subtilis MTCC 441 at 1250 ug/ml after 48 hr by cup-plate method; details: MTCC 441, 48 h, read-out: DIZ
Pseudomonas fluorescens [13] = assay: Antibacterial activity against Pseudomonas fluorescens MTCC 2421 at 100 ug/ml after 48 hr by cup-plate method; details: MTCC 2421, 48 h, read-out: DIZ
Bacillus pumilus [14] = assay: Antibacterial activity against Bacillus pumilus MTCC 1456 at 500 ug/ml after 48 hr by cup-plate method; details: MTCC 1456, 48 h, read-out: DIZ
Penicillium chrysogenum [15] = assay: Antifungal activity against Penicillium chrysogenum MTCC 161 at 100 ug/ml after 48 hr by cup-plate method; details: MTCC 161, 48 h, read-out: DIZ
Bacillus subtilis [16] = assay: Antibacterial activity against Bacillus subtilis MTCC 441 at 750 ug/ml after 48 hr by cup-plate method; details: MTCC 441, 48 h, read-out: DIZ
Bacillus pumilus [17] = assay: Antibacterial activity against Bacillus pumilus MTCC 1456 at 250 ug/ml after 48 hr by cup-plate method; details: MTCC 1456, 48 h, read-out: DIZ
Bacillus subtilis [18] = assay: Antibacterial activity against Bacillus subtilis MTCC 441 at 250 ug/ml after 48 hr by cup-plate method; details: MTCC 441, 48 h, read-out: DIZ
Penicillium chrysogenum [19] = assay: Antifungal activity against Penicillium chrysogenum MTCC 161 at 1250 ug/ml after 48 hr by cup-plate method; details: MTCC 161, 48 h, read-out: DIZ
Pseudomonas aeruginosa [20] = assay: Antibacterial activity against Pseudomonas aeruginosa MTCC 424 at 1000 ug/ml after 48 hr by cup-plate method; details: MTCC 424, 48 h, read-out: DIZ
Aspergillus niger [21] = assay: Antifungal activity against Aspergillus niger MTCC 2546 at 1250 ug/ml after 48 hr by cup-plate method; details: MTCC 2546, 48 h, read-out: DIZ
Bacillus pumilus [22] = assay: Antibacterial activity against Bacillus pumilus MTCC 1456 at 750 ug/ml after 48 hr by cup-plate method; details: MTCC 1456, 48 h, read-out: DIZ
Penicillium chrysogenum [23] = assay: Antifungal activity against Penicillium chrysogenum MTCC 161 at 750 ug/ml after 48 hr by cup-plate method; details: MTCC 161, 48 h, read-out: DIZ
Pseudomonas aeruginosa [24] = assay: Antibacterial activity against Pseudomonas aeruginosa MTCC 424 at 750 ug/ml after 48 hr by cup-plate method; details: MTCC 424, 48 h, read-out: DIZ
Pseudomonas fluorescens [25] = assay: Antibacterial activity against Pseudomonas fluorescens MTCC 2421 at 500 ug/ml after 48 hr by cup-plate method; details: MTCC 2421, 48 h, read-out: DIZ
Bacillus pumilus [26] = assay: Antibacterial activity against Bacillus pumilus MTCC 1456 at 1250 ug/ml after 48 hr by cup-plate method; details: MTCC 1456, 48 h, read-out: DIZ
Bacillus subtilis [27] = assay: Antibacterial activity against Bacillus subtilis MTCC 441 after 24 to 48 hr by tube dilution method

Molecule NC(=O)N1N=C(c2cccc3ccccc23)CC1c1ccc([N+](=O)[O-])cc1 (stereo not drawn) has a zone of inhibition at 500 µg/mL (Pseudomonas aeruginosa [1]) of 11 mm, a zone of inhibition at 100 µg/mL (Pseudomonas aeruginosa [2]) of 9 mm and an MIC (Pseudomonas aeruginosa [3]) of 200 µg/mL (≈ 555 µM). For the same molecule, the zone of inhibition at 750 µg/mL (Escherichia coli [4]) was 12 mm, the zone of inhibition at 1250 µg/mL (Micrococcus luteus) was 11 mm and the MIC (Staphylococcus aureus [5]) was 50 µg/mL (≈ 139 µM). For the same molecule, the zone of inhibition at 250 µg/mL (Escherichia coli [6]) was 10 mm, the MIC (Aspergillus niger [7]) was 50 µg/mL (≈ 139 µM) and the zone of inhibition at 250 µg/mL (Pseudomonas aeruginosa [8]) was 10 mm. It also gave an MIC (Pseudomonas fluorescens [9]) of 200 µg/mL (≈ 555 µM), a zone of inhibition at 500 µg/mL (Bacillus subtilis [10]) of 13 mm and a zone of inhibition at 500 µg/mL (Staphylococcus aureus [11]) of 10 mm. The zone of inhibition at 1250 µg/mL (Bacillus subtilis [12]) was 16 mm, the zone of inhibition at 100 µg/mL (Pseudomonas fluorescens [13]) was 8 mm and the zone of inhibition at 500 µg/mL (Bacillus pumilus [14]) was 9 mm. The zone of inhibition at 100 µg/mL (Penicillium chrysogenum [15]) was 8 mm, the zone of inhibition at 750 µg/mL (Bacillus subtilis [16]) was 14 mm and the zone of inhibition at 250 µg/mL (Bacillus pumilus [17]) was 8 mm. It also gave a zone of inhibition at 250 µg/mL (Bacillus subtilis [18]) of 12 mm, a zone of inhibition at 1250 µg/mL (Penicillium chrysogenum [19]) of 13 mm and a zone of inhibition at 1000 µg/mL (Pseudomonas aeruginosa [20]) of 13 mm. For the same molecule, the zone of inhibition at 1250 µg/mL (Aspergillus niger [21]) was 19 mm, the zone of inhibition at 750 µg/mL (Bacillus pumilus [22]) was 10 mm and the zone of inhibition at 750 µg/mL (Penicillium chrysogenum [23]) was 11 mm. The zone of inhibition at 750 µg/mL (Pseudomonas aeruginosa [24]) was 12 mm, the zone of inhibition at 500 µg/mL (Pseudomonas fluorescens [25]) was 10 mm and the zone of inhibition at 1250 µg/mL (Bacillus pumilus [26]) was 12 mm. It also gave an MIC (Bacillus subtilis [27]) of 15 µg/mL (≈ 41.6 µM).
